{"source": "paper PMC8677773", "about": "“Comprehensive exploration of chemical space using trisubstituted carboranes” (Scientific Reports, 2021)", "tested_on": "recombinant rabies virus strain 1088 expressing gaussia luciferase (1088/GLuc)", "test": "microbe, parasite or virus in culture", "type": "cell-based", "details": "Lyssavirus rabies, N2a, 72 h, read-out: RABV IC50 (concentration required to inhibit the relative light units by 50%)", "data": [{"smiles": "NC(=O)c1nc(F)c[nH]c1=O", "note": "[Favipiravir]", "values": [{"measurement": "IC50", "result": 38, "unit": "µM"}]}]}
